pIC50: −log10 of the molar value.
Columns and labels:
[1] = biological target: T1, Receptor-type tyrosine-protein kinase FLT3 (Homo sapiens, UniProt P36888); assay: Inhibition of human recombinant Flt3
T1 sequence (P36888 whole entry): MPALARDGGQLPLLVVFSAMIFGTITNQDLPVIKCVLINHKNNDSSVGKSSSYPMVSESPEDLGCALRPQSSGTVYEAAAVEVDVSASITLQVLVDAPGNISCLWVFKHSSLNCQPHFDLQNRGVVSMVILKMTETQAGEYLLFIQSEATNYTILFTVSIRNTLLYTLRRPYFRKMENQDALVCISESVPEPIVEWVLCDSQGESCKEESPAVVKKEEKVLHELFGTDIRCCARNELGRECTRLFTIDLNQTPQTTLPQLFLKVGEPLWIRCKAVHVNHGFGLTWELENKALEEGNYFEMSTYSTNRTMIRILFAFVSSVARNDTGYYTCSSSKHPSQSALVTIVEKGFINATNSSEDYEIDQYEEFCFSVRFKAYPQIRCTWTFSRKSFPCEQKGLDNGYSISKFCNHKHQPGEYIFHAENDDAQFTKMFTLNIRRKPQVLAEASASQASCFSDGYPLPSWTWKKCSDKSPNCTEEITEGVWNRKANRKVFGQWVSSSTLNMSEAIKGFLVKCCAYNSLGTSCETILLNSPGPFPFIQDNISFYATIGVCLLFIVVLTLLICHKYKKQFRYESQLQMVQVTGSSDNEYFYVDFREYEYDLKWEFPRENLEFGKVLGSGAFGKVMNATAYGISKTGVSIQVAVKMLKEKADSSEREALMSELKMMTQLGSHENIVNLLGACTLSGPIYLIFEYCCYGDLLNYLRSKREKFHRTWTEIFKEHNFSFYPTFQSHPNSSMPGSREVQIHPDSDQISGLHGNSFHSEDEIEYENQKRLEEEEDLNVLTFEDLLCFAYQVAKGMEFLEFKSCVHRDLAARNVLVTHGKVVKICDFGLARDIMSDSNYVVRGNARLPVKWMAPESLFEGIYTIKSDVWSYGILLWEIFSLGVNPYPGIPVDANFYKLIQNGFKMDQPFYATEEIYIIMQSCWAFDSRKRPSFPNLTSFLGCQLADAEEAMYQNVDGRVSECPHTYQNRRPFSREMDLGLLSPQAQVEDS

MV4-11 = assay: Cytotoxicity against human MV4-11 cells assessed as cell viability after 72 hrs by MTT assay; format: functional, cell-based; conditions: MV4-11, 72 h
HeLa = assay: Cytotoxicity against human HeLa cells assessed as cell viability after 72 hrs by MTT assay; format: functional, cell-based

| Structure (SMILES) | pIC50 [1] | pIC50 (MV4-11) | pIC50 (HeLa) |
| --- | --- | --- | --- |
| CC(C)(C)c1cc(NC(=O)Nc2ccc(-c3cn4c(C(=O)NCCS(C)(=O)=O)csc4n3)cc2)no1 | 7.02 | 8.31 | < 4.70 |
| CCOC(=O)c1csc2nc(-c3ccc(NC(=O)c4ccco4)cc3)cn12 |  | 5.00 | < 4.70 |
| CC(C)(C)c1cc(NC(=O)Nc2ccc(-c3cn4c(C(=O)NCCO)csc4n3)cc2)no1 |  | 7.81 | < 4.70 |
| C=CC(=O)Nc1cccc(-c2cn3c(C(=O)OCC)csc3n2)c1 |  | < 4.70 | < 4.70 |
| CCOC(=O)c1csc2nc(-c3ccc(NC(=O)CCl)cc3)cn12 |  | 5.04 | < 4.70 |
| CCOC(=O)c1csc2nc(-c3cccc(NC(=O)CCl)c3)cn12 |  | 4.75 | 4.70 |
| CN(C)CCNC(=O)c1csc2nc(-c3ccc(NC(=O)Nc4cc(C(C)(C)C)on4)cc3)cn12 | 7.66 | 8.01 | 4.70 |
| CCOC(=O)c1csc2nc(-c3ccc(NS(=O)(=O)c4ccc(C)cc4)cc3)cn12 |  | < 4.70 | < 4.70 |
| CCOC(=O)c1csc2nc(-c3cccc(NC(=O)CC)c3)cn12 |  | < 4.70 | < 4.70 |
| CCOC(=O)c1csc2nc(-c3ccc(NC(=O)CC)cc3)cn12 |  | 5.02 | < 4.70 |
| CC(C)(C)c1cc(NC(=O)Nc2ccc(-c3cn4c(C(=O)NCCN5CCOCC5)csc4n3)cc2)no1 |  | 7.79 | < 4.70 |
| CNC(=O)c1cc(Oc2ccc(NC(=O)Nc3ccc(Cl)c(C(F)(F)F)c3)cc2)ccn1 [SORAFENIB] |  | 8.15 | 5.28 |
| C=CC(=O)Nc1ccc(-c2cn3c(C(=O)OCC)csc3n2)cc1 |  | 5.53 | < 4.70 |
| CCOC(=O)c1csc2nc(-c3ccc(NC(=O)Nc4cc(C(C)(C)C)on4)cc3)cn12 |  | 6.56 | < 4.70 |
| CC(C)(C)c1cc(NC(=O)Nc2ccc(-c3cn4c(C(=O)OCCN5CCOCC5)csc4n3)cc2)no1 |  | 6.84 | < 4.70 |
| CCOC(=O)c1csc2nc(-c3cccc(NC(=O)c4ccco4)c3)cn12 |  | < 4.70 | < 4.70 |
| CCOC(=O)c1csc2nc(-c3ccc(NC(=O)Nc4ccccc4)cc3)cn12 |  | < 4.70 | < 4.70 |
| CCCS(=O)(=O)Nc1ccc(-c2cn3c(C(=O)OCC)csc3n2)cc1 |  | < 4.70 | < 4.70 |
| CCOC(=O)c1csc2nc(-c3ccc(NC(=O)Nc4ccc(Br)cn4)cc3)cn12 |  | 5.61 | < 4.70 |
